# Results: patent publication US20070293443A1, “Composition for Accelerating Calcium Absorption” (Good Shusei Co. Ltd, priority 2004, published 2007)
# Columns and labels:
# [1] = tested on: experimental osteoporosis induced by calcium-deficient diet; assay: Experimental osteoporosis induced by calcium-deficient diet (Example 7); assay type: in vivo, mice; settings: for absorption rate of calcium in the digestive tract, fourth week / absorption rate of calcium in the digestive tract, second week: calcium-deficient diet mice; for Femur Ash content / Femur Ca content / Femur P content / Femur Weight / Tibia Ash content / Tibia Ca content / Tibia P content / Tibia Weight: 4 weeks
# Protocol: (§1) Six-week old female ICR mice were divided into five groups (Groups I to V, 10 animals in each group), and fed calcium-deficient feed (calcium carbonate-free AIN 93M, Oriental Yeast Co., Ltd.) for 4 weeks to induce osteoporosis condition. Calcium L-arabonate was dissolved in water and orally administered daily in a dose of 1.25 mmol/kg (Group II) or 2.5 mmol/kg (Group III). The control group for pathological condition (Group I) was administered with water in the same manner. As a comparative group, a group administered with calcium D-gluconate (dose 2.5 mmol/kg (Group IV)) was provided. A normal control group (Group V) was separately provided and was given the normal feed (AIN 93M, Oriental Yeast Co., Ltd.). After administering the test substance on the second week and fourth week of initiation of the test, the animals were transferred to a metabolic cage, and feces were collected for 24 hours. The amount of calcium and phosphorus excreted in the feces were measured, and the absorption rates of ingested calcium and phosphorous in the digestive tract were determined. After completion of the test period, the animals of the respective groups were sacrificed to remove both femurs and tibiae. The femurs and tibiae were removed muscles etc., then immersed in 70% ethanol overnight, and dried at 60° C. for 24 hours to be used as samples for analysis. The measurement items were dry weight, ash content, calcium content, and phosphorus content. The ash content was measured by an ashing method at 550° C. for 18 hours, the calcium content was measured by an OCPC method (Calcium C-Test Wako, Wako Pure Chemical Industries, Ltd.), and the phosphorus content was measured by a p-methylaminophenol reduction method (Phospho C-Test Wako, Wako Pure Chemical Industries, Ltd.). The obtained data were analyzed by ANOVA and the Dunnett's method, and a risk ratio of 5% or less was considered as significant difference.
# [2] = Blood calcium level after administration of calcium L-arabonate (Example 5); assay type: in vivo; settings: male ICR mice, oral calcium L-arabonate 1.25, 2.5, 5.0 mmol/kg or calcium carbonate 5 mmol/kg, up to 4 hours
# Protocol: For the experiment, 11-weeks old male ICR mice were used after overnight fasting. During the test period, the mice were given deionized water only. The mice were divided into four groups (Groups I to IV, 5 animals in each group), and the test substance was orally administered as a solution in deionized water. […] The blood calcium level was quantified by a chelating calorimetric method (ortho-cresolphthalein complexone (OCPC) method). The obtained data were analyzed by a paired t-test, and a risk ratio of 5% or less was considered as significant difference.
# mice = assay: Single oral administration safety test, LD50; assay type: in vivo
# From the text: As a result of a single oral test using mice, it was confirmed that the LD50 value of L-arabonic acid was about 10 g/kg, and thus L-arabonic acid was a material having high safety.
# While it was discovered in Example 5 that the calcium moiety of calcium L-arabonate used in the invention was extremely readily-absorbable, it was shown in Example 6 that the L-arabonic acid moiety was extremely poorly absorbed in the digestive tract.
# [3] = Kinetics of calcium L-arabonate in the digestive tract of rat (Example 6); assay type: in vivo
# Protocol: For the experiment, 9 to 12-weeks old male Wistar rats were used after overnight fasting. After orally administering 2.5 mmol/kg of calcium L-arabonate, the animals were entered into a metabolic cage, and were sacrificed after 2 hours, after 6 hours, and after 24 hours, to remove the digestive tracts. The contents in each site of the digestive tract were recovered, respectively, and the amount of unaltered L-arabonic acid was quantified by the HPLC method. During the test period, the animals were given deionized water only.
# [4] = tested on: experimental osteoporosis induced by combination of ovary excision and calcium-deficient diet; assay: Experimental osteoporosis due to combination of ovary excision and calcium-deficient diet (Example 8); assay type: in vivo, mice; settings: for absorption rate of calcium in the digestive tract, fourth week / absorption rate of calcium in the digestive tract, second week: ovary-excised mice on calcium-deficient diet; for Femur Ash content / Femur Ca content / Femur P content / Femur Weight / Tibia Ash content / Tibia Ca content / Tibia P content / Tibia Weight: 4 weeks
# Protocol: as §1
# Six-weeks old female ICR mice excised their ovaries were divided into 5 groups (Groups I to V, 10 animals in each group), and fed calcium-deficient feed (calcium carbonate-free AIN 93M, Oriental Yeast Co., Ltd.) for 4 weeks to induce osteoporosis condition. Calcium L-arabonate was dissolved in water, and orally administered daily in a dose of 1.25 mmol/kg (Group II) or 2.5 mmol/kg (Group III). The control group for pathological condition (Group I) was administered with water in the same manner. As a comparative group, a group administered with calcium D-gluconate (dose 2.5 mmol/kg (Group IV)) was provided. Also, a group excised ovaries but given with normal feed (AIN 93M, Oriental Yeast Co., Ltd.) (Group V) was separately provided. The measurement of the absorption rate of calcium in the digestive tract, and the analysis of femur and tibia were performed in the same manner as in Example 7.
# [5] = Neutralization curve on dropwise addition of 0.05 N sodium hydroxide, buffering capacity (Example 9); assay type: physicochemical; settings: 50 mL of 0.4% aqueous solution, 0.05 N sodium hydroxide added
# Protocol: A sodium hydroxide solution at a concentration of 0.05 N was added to 50 mL of a 0.4% aqueous solution of the preparation of Example 9, and the changes in pH were obtained as shown in FIG. 3. […] In addition, 0.2% aqueous solutions of the preparation of Example 9, Comparative Example 1 and Comparative Example 2 were tasted. The 0.2% aqueous solution of the preparation of […] (pH 4.95), having the lowest pH among three, had the closest taste to water, no flavor, and thus it was indistinguishable from water. The preparations of Comparative Example 1 (pH 5.60) and Comparative Example 2 (pH 5.02) had clearly bitter tastes, even in small amount.
# In addition, a sodium hydroxide solution at a concentration of 0.05 N was added to 50 mL of a 0.4% aqueous solution of L-arabono-γ-lactone and 50 mL of a 0.4% aqueous solution of D-glucono-δ-lactone, respectively, and the changes in pH were obtained as shown in FIG. 2.
# [6] = tested on: dietary calcium absorption; assay: Dietary calcium absorption accelerating effect, blood calcium level after oral calcium carbonate with test substance (Example 1); assay type: in vivo; settings: male ICR mice, oral 5 mmol/kg calcium carbonate alone or with test substance (1.25-10.0 mmol/kg), up to 4 hours after administration
# From the text: For the experiment, 11-weeks old male ICR mice were used after overnight fasting. During the test period, the mice were given deionized water only. […] The doses of L-arabonic acid administered in combination were 1.25 mmol/kg (Group II), 2.5 mmol/kg (Group III), 5.0 mmol/kg (Group IV), and 10.0 mmol/kg (Group V), and the doses of D-gluconic acid were 2.5 mmol/kg (Group VI), 5.0 mmol/kg (Group VII), and 10.0 mmol/kg (Group VIII). […] The blood calcium level was quantified by a chelate colorimetric method (ortho-cresolphthalein complexone (OCPC) method). The obtained data were analyzed by a paired t-test, and a risk ratio of 5% or less was considered as significant difference.
# [7] = 1.25 and 2.5 mmol/kg, versus pathological control and calcium D-gluconate group
smiles,measurement,setting,value
O=C([O-])[C@@H](O)[C@H](O)[C@H](O)CO.O=C([O-])[C@@H](O)[C@H](O)[C@H](O)CO.[Ca+2] [calcium L-arabonate],absorption rates of phosphorus in the digestive tract,"[1]; 1.25 and 2.5 mmol/kg, compared with calcium D-gluconate group",tendency for higher absorption rates of phosphorus compared with the comparative group
same,"amelioration of weight, ash, calcium and phosphorus content of femur and tibia",[1]; [7],ameliorated in all of the above indices in dose-dependent manner
same,"absorption rate of calcium in the digestive tract, fourth week",[1]; dose 1.25 mmol/kg oral daily,99.3%
same,"absorption rate of calcium in the digestive tract, second week",[1]; dose 1.25 mmol/kg oral daily,93.1%
same,"absorption rate of calcium in the digestive tract, fourth week",[1]; dose 2.5 mmol/kg oral daily,80.1%
same,"absorption rate of calcium in the digestive tract, second week",[1]; dose 2.5 mmol/kg oral daily,87.9%
same,Femur Ash content,[1]; dose 1.25 mmol/kg oral daily,24 ± 0.7 mg
same,Femur Ca content,[1]; dose 1.25 mmol/kg oral daily,8.8 ± 0.22 mg
same,Femur P content,[1]; dose 1.25 mmol/kg oral daily,4.5 ± 0.09 mg
same,Femur Weight,[1]; dose 1.25 mmol/kg oral daily,44 ± 1.0 mg
same,Femur Ash content,[1]; dose 2.5 mmol/kg oral daily,27 ± 0.5 mg
same,Femur Ca content,[1]; dose 2.5 mmol/kg oral daily,9.5 ± 0.13 mg
same,Femur P content,[1]; dose 2.5 mmol/kg oral daily,5.1 ± 0.05 mg
same,Femur Weight,[1]; dose 2.5 mmol/kg oral daily,49 ± 1.1 mg
same,Tibia Ash content,[1]; dose 1.25 mmol/kg oral daily,23 ± 0.8 mg
same,Tibia Ca content,[1]; dose 1.25 mmol/kg oral daily,8.1 ± 0.28 mg
same,Tibia P content,[1]; dose 1.25 mmol/kg oral daily,4.2 ± 0.14 mg
same,Tibia Weight,[1]; dose 1.25 mmol/kg oral daily,43 ± 1.6 mg
same,Tibia Ash content,[1]; dose 2.5 mmol/kg oral daily,24 ± 0.5 mg
same,Tibia Ca content,[1]; dose 2.5 mmol/kg oral daily,9.1 ± 0.22 mg
same,Tibia P content,[1]; dose 2.5 mmol/kg oral daily,4.6 ± 0.05 mg
same,Tibia Weight,[1]; dose 2.5 mmol/kg oral daily,46 ± 1.2 mg
same,change in blood calcium level,[2],dose-dependent increases in the blood calcium level
same,LD50,mice,≥ 7400 mg/kg
same,share of the total amount of administration remained in the cecum and the colon,"[3]; after 24 hours, oral 2.5 mmol/kg calcium L-arabonate",About 23%
same,absorption of the arabonic acid moiety in the small intestine,[3]; after oral administration of the calcium salt,hardly absorbed in the small intestine
same,"Residual ratio of L-arabonic acid after administration, Cecum, After 2 hrs","[3]; oral 2.5 mmol/kg calcium L-arabonate, cecum, 2 hrs",34.4 ± 5.81%
same,"Residual ratio of L-arabonic acid after administration, Cecum, After 6 hrs","[3]; oral 2.5 mmol/kg calcium L-arabonate, cecum, 6 hrs",57.8 ± 2.27%
same,"Residual ratio of L-arabonic acid after administration, Cecum, After 24 hrs","[3]; oral 2.5 mmol/kg calcium L-arabonate, cecum, 24 hrs",19.0 ± 15.67%
same,"Residual ratio of L-arabonic acid after administration, Colon, After 2 hrs","[3]; oral 2.5 mmol/kg calcium L-arabonate, colon, 2 hrs",1.9 ± 0.76%
same,"Residual ratio of L-arabonic acid after administration, Colon, After 6 hrs","[3]; oral 2.5 mmol/kg calcium L-arabonate, colon, 6 hrs",3.9 ± 1.30%
same,"Residual ratio of L-arabonic acid after administration, Colon, After 24 hrs","[3]; oral 2.5 mmol/kg calcium L-arabonate, colon, 24 hrs",2.5 ± 0.95%
same,"Residual ratio of L-arabonic acid after administration, Small intestine, After 2 hrs","[3]; oral 2.5 mmol/kg calcium L-arabonate, small intestine, 2 hrs",22.6 ± 4.85%
same,"Residual ratio of L-arabonic acid after administration, Small intestine, After 6 hrs","[3]; oral 2.5 mmol/kg calcium L-arabonate, small intestine, 6 hrs",2.2 ± 1.08%
same,"Residual ratio of L-arabonic acid after administration, Small intestine, After 24 hrs","[3]; oral 2.5 mmol/kg calcium L-arabonate, small intestine, 24 hrs",0.2 ± 0.08%
same,"Residual ratio of L-arabonic acid after administration, Stomach, After 2 hrs","[3]; oral 2.5 mmol/kg calcium L-arabonate, stomach, 2 hrs",3.30 ± 1.34%
same,"Residual ratio of L-arabonic acid after administration, Stomach, After 6 hrs","[3]; oral 2.5 mmol/kg calcium L-arabonate, stomach, 6 hrs",0.1 ± 0.06%
same,"Residual ratio of L-arabonic acid after administration, Stomach, After 24 hrs","[3]; oral 2.5 mmol/kg calcium L-arabonate, stomach, 24 hrs",0%
same,"amelioration of weight, ash, calcium and phosphorus content of femur and tibia",[4]; [7],ameliorated in all of the indices in dose-dependent manner
same,"absorption rate of calcium in the digestive tract, fourth week",[4]; dose 1.25 mmol/kg oral daily,81.8%
same,"absorption rate of calcium in the digestive tract, second week",[4]; dose 1.25 mmol/kg oral daily,85.7%
same,"absorption rate of calcium in the digestive tract, fourth week",[4]; dose 2.5 mmol/kg oral daily,57.7%
same,"absorption rate of calcium in the digestive tract, second week",[4]; dose 2.5 mmol/kg oral daily,74.4%
same,Femur Ash content,[4]; dose 1.25 mmol/kg oral daily,25 ± 0.4 mg
same,Femur Ca content,[4]; dose 1.25 mmol/kg oral daily,8.8 ± 0.18 mg
same,Femur P content,[4]; dose 1.25 mmol/kg oral daily,4.7 ± 0.07 mg
same,Femur Weight,[4]; dose 1.25 mmol/kg oral daily,45 ± 0.9 mg
same,Femur Ash content,[4]; dose 2.5 mmol/kg oral daily,28 ± 0.8 mg
same,Femur Ca content,[4]; dose 2.5 mmol/kg oral daily,10.2 ± 0.24 mg
same,Femur P content,[4]; dose 2.5 mmol/kg oral daily,5.3 ± 0.11 mg
same,Femur Weight,[4]; dose 2.5 mmol/kg oral daily,50 ± 0.9 mg
same,Tibia Ash content,[4]; dose 1.25 mmol/kg oral daily,22 ± 0.3 mg
same,Tibia Ca content,[4]; dose 1.25 mmol/kg oral daily,8.2 ± 0.15 mg
same,Tibia P content,[4]; dose 1.25 mmol/kg oral daily,4.2 ± 0.05 mg
same,Tibia Weight,[4]; dose 1.25 mmol/kg oral daily,42 ± 0.8 mg
same,Tibia Ash content,[4]; dose 2.5 mmol/kg oral daily,25 ± 0.5 mg
same,Tibia Ca content,[4]; dose 2.5 mmol/kg oral daily,9.3 ± 0.23 mg
same,Tibia P content,[4]; dose 2.5 mmol/kg oral daily,4.7 ± 0.11 mg
same,Tibia Weight,[4]; dose 2.5 mmol/kg oral daily,46 ± 1.0 mg
O=C1O[C@@H](CO)[C@H](O)[C@H]1O [L-arabono-γ-lactone],buffering capacity,[5],milder than that of D-glucono-δ-lactone
same,change in blood calcium level,[6],same effects as those of L-arabonic acid
